From ChEMBL document CHEMBL1139780, “Pentamer is the minimum structure for oligomannosylpeptoids to bind to concanavalin A” (Bioorg Med Chem Lett, 2007) come the findings set out here.

The source made the active and inactive calls. The rule behind the calls is not given here.

In the experiment the target is Concanavalin-A (Canavalia ensiformis) (UniProt P02866). Kind of experiment: Binding affinity to jack bean concanavalin A by enzyme-linked lectin assay.
Sequence of Concanavalin-A (Canavalia ensiformis) (P02866 whole entry): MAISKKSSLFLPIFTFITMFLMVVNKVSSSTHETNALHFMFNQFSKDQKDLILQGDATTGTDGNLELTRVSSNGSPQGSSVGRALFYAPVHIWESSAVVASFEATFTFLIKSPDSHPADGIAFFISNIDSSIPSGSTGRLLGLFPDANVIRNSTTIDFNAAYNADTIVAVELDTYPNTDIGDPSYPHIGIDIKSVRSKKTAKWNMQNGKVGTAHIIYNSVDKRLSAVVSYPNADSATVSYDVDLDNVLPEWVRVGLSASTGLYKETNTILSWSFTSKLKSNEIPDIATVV
Regarding `CN(C)c1cccc2c(S(=O)(=O)N(CCO[C@H]3O[C@H](CO)[C@@H](O)[C@H](O)[C@@H]3O)CC(=O)N(CCO[C@H]3O[C@H](CO)[C@@H](O)[C@H](O)[C@@H]3O)CC(=O)N(CCO[C@H]3O[C@H](CO)[C@@H](O)[C@H](O)[C@@H]3O)CC(N)=O)cccc12`, the outcome was Active.
`NC(=O)CN(CCO[C@H]1O[C@H](CO)[C@@H](O)[C@H](O)[C@@H]1O)C(=O)CN(CCO[C@H]1O[C@H](CO)[C@@H](O)[C@H](O)[C@@H]1O)C(=O)CN(CCO[C@H]1O[C@H](CO)[C@@H](O)[C@H](O)[C@@H]1O)C(=O)CN(CCO[C@H]1O[C@H](CO)[C@@H](O)[C@H](O)[C@@H]1O)C(=O)CN(CCO[C@H]1O[C@H](CO)[C@@H](O)[C@H](O)[C@@H]1O)C(=O)CNC(=O)CCCCC1SC[C@@H]2NC(=O)N[C@H]12` (stereo not given in full): the outcome was Active.
In the case of `NC(=O)CN(CCO[C@H]1O[C@H](CO)[C@@H](O)[C@H](O)[C@@H]1O)C(=O)CN(CCO[C@H]1O[C@H](CO)[C@@H](O)[C@H](O)[C@@H]1O)C(=O)CN(CCO[C@H]1O[C@H](CO)[C@@H](O)[C@H](O)[C@@H]1O)C(=O)CN(CCO[C@H]1O[C@H](CO)[C@@H](O)[C@H](O)[C@@H]1O)C(=O)CN(CCO[C@H]1O[C@H](CO)[C@@H](O)[C@H](O)[C@@H]1O)C(=O)CNC(=O)CCCCCNC(=O)CCCCC1SC[C@@H]2NC(=O)N[C@H]12` (stereo not given in full), the outcome was Active.
As to `NC(=O)CCN(CCO[C@H]1O[C@H](CO)[C@@H](O)[C@H](O)[C@@H]1O)C(=O)CN(CCO[C@H]1O[C@H](CO)[C@@H](O)[C@H](O)[C@@H]1O)C(=O)CN(CCO[C@H]1O[C@H](CO)[C@@H](O)[C@H](O)[C@@H]1O)C(=O)CN(CCO[C@H]1O[C@H](CO)[C@@H](O)[C@H](O)[C@@H]1O)C(=O)CN(CCO[C@H]1O[C@H](CO)[C@@H](O)[C@H](O)[C@@H]1O)C(=O)CN(CCO[C@H]1O[C@H](CO)[C@@H](O)[C@H](O)[C@@H]1O)C(=O)CNC(=O)CCCCCNC(=O)CCCCC1SC[C@@H]2NC(=O)N[C@H]12` (stereo not given in full), the result was Active.
To `NC(=O)CCN(CCO[C@H]1O[C@H](CO)[C@@H](O)[C@H](O)[C@@H]1O)C(=O)CN(CCO[C@H]1O[C@H](CO)[C@@H](O)[C@H](O)[C@@H]1O)C(=O)CN(CCO[C@H]1O[C@H](CO)[C@@H](O)[C@H](O)[C@@H]1O)C(=O)CN(CCO[C@H]1O[C@H](CO)[C@@H](O)[C@H](O)[C@@H]1O)C(=O)CN(CCO[C@H]1O[C@H](CO)[C@@H](O)[C@H](O)[C@@H]1O)C(=O)CN(CCO[C@H]1O[C@H](CO)[C@@H](O)[C@H](O)[C@@H]1O)C(=O)CNC(=O)CCCCC1SC[C@@H]2NC(=O)N[C@H]12` (stereo not given in full) belongs “Active”.
